Like-named read-outs stand apart in the source and are kept apart here.
What was measured:
Experiment in all cases: KinomeScan kinase profiling
Assay type in all cases: binding
[1] = biological target: T1, SYK (Homo sapiens, UniProt P43405)
T1 construct: purchased Ambit Biosciences
Source text: (§1) The selectivity of a given CK1δ, CK1ε or CK1δ-CK1ε inhibitor compound can be determined by testing the compound against a panel of known kinases. An example of such a kinase profiling technology is the “KinomeScan” from Ambit Biosciences in which compounds can be screened for their modulatory activities against more than 200 known kinases.

[2] = biological target: T2, ERK2 (Homo sapiens, UniProt P28482)
T2 construct: purchased Ambit Biosciences (San Diego, Calif.)
Source text: as §1

[3] = biological target: T3, MARK2 (Homo sapiens, UniProt Q7KZI7)
T3 construct: purchased Ambit Biosciences (San Diego, Calif.)
Source text: as §1

[4] = biological target: T4, CSNK1G2 (Homo sapiens, UniProt P78368)
T4 construct: purchased Ambit Biosciences (San Diego, Calif.)
Source text: as §1

[5] = biological target: T5, EPHA5 (Homo sapiens, UniProt P54756)
T5 construct: purchased Ambit Biosciences (San Diego, Calif.)
Source text: as §1

[6] = biological target: T6, NEK2 (Homo sapiens, UniProt P51955)
T6 construct: purchased Ambit Biosciences (San Diego, Calif.)
Source text: as §1

[7] = biological target: T7, JNK3 (Homo sapiens, UniProt P53779)
T7 construct: purchased Ambit Biosciences (San Diego, Calif.)
Source text: as §1

[8] = biological target: T8, DAPK3 (Homo sapiens, UniProt O43293)
T8 construct: purchased Ambit Biosciences (San Diego, Calif.)
Source text: as §1

[9] = biological target: T9, MKNK2 (Homo sapiens, UniProt Q9HBH9)
T9 construct: purchased Ambit Biosciences (San Diego, Calif.)
Source text: as §1

[10] = biological target: T10, CSK (Homo sapiens, UniProt P41240)
T10 construct: purchased Ambit Biosciences (San Diego, Calif.)
Source text: as §1

[11] = biological target: T11, DMPK (Homo sapiens, UniProt Q09013)
T11 construct: purchased Ambit Biosciences (San Diego, Calif.)
Source text: as §1

[12] = biological target: T12, PKMYT1 (Homo sapiens, UniProt Q99640)
T12 construct: purchased Ambit Biosciences (San Diego, Calif.)
Source text: as §1

[13] = biological target: T13, MAP3K4 (Homo sapiens, UniProt Q9Y6R4)
T13 construct: purchased Ambit Biosciences (San Diego, Calif.)
Source text: as §1

[14] = biological target: T14, ABL2 (Homo sapiens, UniProt P42684)
T14 construct: purchased Ambit Biosciences (San Diego, Calif.)
Source text: as §1

[15] = biological target: T15, TRKA (Homo sapiens, UniProt P04629)
T15 construct: purchased Ambit Biosciences
Source text: as §1

[16] = biological target: T16, PLK4 (Homo sapiens, UniProt O00444)
T16 construct: purchased Ambit Biosciences (San Diego, Calif.)
Source text: as §1

[17] = biological target: T17, EGFR (Homo sapiens, UniProt P00533)
T17 construct: purchased Ambit Biosciences (San Diego, Calif.)
Source text: as §1

[18] = biological target: T18, STK17A (Homo sapiens, UniProt Q9UEE5)
T18 construct: purchased Ambit Biosciences
Source text: as §1

[19] = biological target: T19, EPHA8 (Homo sapiens, UniProt P29322)
T19 construct: purchased Ambit Biosciences (San Diego, Calif.)
Source text: as §1

[20] = biological target: T20, STK36 (Homo sapiens, UniProt Q9NRP7)
T20 construct: purchased Ambit Biosciences
Source text: as §1

[21] = biological target: T21, PTK2 (Homo sapiens, UniProt Q05397)
T21 construct: purchased Ambit Biosciences
Source text: as §1

[22] = biological target: T22, LTK (Homo sapiens, UniProt P29376)
T22 construct: purchased Ambit Biosciences (San Diego, Calif.)
Source text: as §1

[23] = biological target: T23, CAMK1G (Homo sapiens, UniProt Q96NX5)
T23 construct: purchased Ambit Biosciences (San Diego, Calif.)
Source text: as §1

[24] = biological target: T24, EPHB1 (Homo sapiens, UniProt P54762)
T24 construct: purchased Ambit Biosciences (San Diego, Calif.)
Source text: as §1

[25] = biological target: T25, TXK (Homo sapiens, UniProt P42681)
T25 construct: purchased Ambit Biosciences
Source text: as §1

[26] = biological target: T26, FLT4 (Homo sapiens, UniProt P35916)
T26 construct: purchased Ambit Biosciences (San Diego, Calif.)
Source text: as §1

[27] = biological target: T27, BIKE (Homo sapiens, UniProt Q9NSY1)
T27 construct: purchased Ambit Biosciences (San Diego, Calif.)
Source text: as §1

[28] = biological target: T28, ULK3(mouse) (Mus musculus, UniProt Q3U3Q1)
T28 construct: purchased Ambit Biosciences (San Diego, Calif.)
Source text: as §1

[29] = biological target: T29, TTK (Homo sapiens, UniProt P33981)
T29 construct: purchased Ambit Biosciences
Source text: as §1

[30] = biological target: T30, ABL1 (Homo sapiens, UniProt P00519)
T30 construct: purchased Ambit Biosciences (San Diego, Calif.)
Source text: as §1

[31] = biological target: T31, CAMK2B (Homo sapiens, UniProt Q13554)
T31 construct: purchased Ambit Biosciences (San Diego, Calif.)
Source text: as §1

[32] = biological target: T32, JAK1(Kin.Dom1) (Homo sapiens, UniProt P23458)
T32 construct: JAK1(Kin.Dom1); purchased Ambit Biosciences (San Diego, Calif.)
Source text: as §1

[33] = biological target: T33, PAK6 (Homo sapiens, UniProt Q9NQU5)
T33 construct: purchased Ambit Biosciences (San Diego, Calif.)
Source text: as §1

[34] = biological target: T34, NEK9 (Homo sapiens, UniProt Q8TD19)
T34 construct: purchased Ambit Biosciences (San Diego, Calif.)
Source text: as §1

[35] = biological target: T35, PAK1 (Homo sapiens, UniProt Q13153)
T35 construct: purchased Ambit Biosciences (San Diego, Calif.)
Source text: as §1

[36] = biological target: T36, BLK (Homo sapiens, UniProt P51451)
T36 construct: purchased Ambit Biosciences (San Diego, Calif.)
Source text: as §1

[37] = biological target: T37, MYLK2 (Homo sapiens, UniProt Q9H1R3)
T37 construct: purchased Ambit Biosciences (San Diego, Calif.)
Source text: as §1

[38] = biological target: T38, EPHA4 (Homo sapiens, UniProt P54764)
T38 construct: purchased Ambit Biosciences (San Diego, Calif.)
Source text: as §1

[39] = biological target: T39, CSNK1G1 (Homo sapiens, UniProt Q9HCP0)
T39 construct: purchased Ambit Biosciences (San Diego, Calif.)
Source text: as §1

[40] = biological target: T40, FES (Homo sapiens, UniProt P07332)
T40 construct: purchased Ambit Biosciences (San Diego, Calif.)
Source text: as §1

T17 sequence (P00533 25-1210): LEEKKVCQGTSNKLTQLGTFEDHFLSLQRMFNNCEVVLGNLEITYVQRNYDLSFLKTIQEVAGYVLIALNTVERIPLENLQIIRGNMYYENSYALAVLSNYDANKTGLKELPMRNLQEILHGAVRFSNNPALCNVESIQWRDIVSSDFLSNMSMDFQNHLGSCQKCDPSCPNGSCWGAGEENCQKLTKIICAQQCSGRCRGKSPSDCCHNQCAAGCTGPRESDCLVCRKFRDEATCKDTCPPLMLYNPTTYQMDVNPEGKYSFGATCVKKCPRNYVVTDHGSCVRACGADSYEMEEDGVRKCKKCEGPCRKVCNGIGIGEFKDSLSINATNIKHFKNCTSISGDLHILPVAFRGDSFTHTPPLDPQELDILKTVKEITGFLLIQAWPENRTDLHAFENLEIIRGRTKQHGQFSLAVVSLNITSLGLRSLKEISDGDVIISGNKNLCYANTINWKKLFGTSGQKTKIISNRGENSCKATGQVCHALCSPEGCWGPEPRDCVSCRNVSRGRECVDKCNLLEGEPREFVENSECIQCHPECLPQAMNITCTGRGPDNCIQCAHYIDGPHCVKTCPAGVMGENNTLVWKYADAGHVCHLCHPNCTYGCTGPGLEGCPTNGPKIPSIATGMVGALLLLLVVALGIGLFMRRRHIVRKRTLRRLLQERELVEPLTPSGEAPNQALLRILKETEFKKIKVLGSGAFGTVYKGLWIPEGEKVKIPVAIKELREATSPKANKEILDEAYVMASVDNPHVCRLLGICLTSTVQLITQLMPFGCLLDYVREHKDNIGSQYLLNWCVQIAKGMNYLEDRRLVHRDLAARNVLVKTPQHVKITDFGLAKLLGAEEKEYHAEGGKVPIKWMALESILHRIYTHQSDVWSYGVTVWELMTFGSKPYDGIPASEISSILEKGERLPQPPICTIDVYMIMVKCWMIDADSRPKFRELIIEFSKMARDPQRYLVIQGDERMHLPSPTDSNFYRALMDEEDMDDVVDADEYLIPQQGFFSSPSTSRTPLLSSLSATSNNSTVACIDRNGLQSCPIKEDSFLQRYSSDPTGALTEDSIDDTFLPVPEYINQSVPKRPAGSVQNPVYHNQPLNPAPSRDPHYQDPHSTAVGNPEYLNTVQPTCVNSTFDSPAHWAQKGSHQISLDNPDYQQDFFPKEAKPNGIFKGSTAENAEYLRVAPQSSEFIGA
T13 sequence (Q9Y6R4 whole entry): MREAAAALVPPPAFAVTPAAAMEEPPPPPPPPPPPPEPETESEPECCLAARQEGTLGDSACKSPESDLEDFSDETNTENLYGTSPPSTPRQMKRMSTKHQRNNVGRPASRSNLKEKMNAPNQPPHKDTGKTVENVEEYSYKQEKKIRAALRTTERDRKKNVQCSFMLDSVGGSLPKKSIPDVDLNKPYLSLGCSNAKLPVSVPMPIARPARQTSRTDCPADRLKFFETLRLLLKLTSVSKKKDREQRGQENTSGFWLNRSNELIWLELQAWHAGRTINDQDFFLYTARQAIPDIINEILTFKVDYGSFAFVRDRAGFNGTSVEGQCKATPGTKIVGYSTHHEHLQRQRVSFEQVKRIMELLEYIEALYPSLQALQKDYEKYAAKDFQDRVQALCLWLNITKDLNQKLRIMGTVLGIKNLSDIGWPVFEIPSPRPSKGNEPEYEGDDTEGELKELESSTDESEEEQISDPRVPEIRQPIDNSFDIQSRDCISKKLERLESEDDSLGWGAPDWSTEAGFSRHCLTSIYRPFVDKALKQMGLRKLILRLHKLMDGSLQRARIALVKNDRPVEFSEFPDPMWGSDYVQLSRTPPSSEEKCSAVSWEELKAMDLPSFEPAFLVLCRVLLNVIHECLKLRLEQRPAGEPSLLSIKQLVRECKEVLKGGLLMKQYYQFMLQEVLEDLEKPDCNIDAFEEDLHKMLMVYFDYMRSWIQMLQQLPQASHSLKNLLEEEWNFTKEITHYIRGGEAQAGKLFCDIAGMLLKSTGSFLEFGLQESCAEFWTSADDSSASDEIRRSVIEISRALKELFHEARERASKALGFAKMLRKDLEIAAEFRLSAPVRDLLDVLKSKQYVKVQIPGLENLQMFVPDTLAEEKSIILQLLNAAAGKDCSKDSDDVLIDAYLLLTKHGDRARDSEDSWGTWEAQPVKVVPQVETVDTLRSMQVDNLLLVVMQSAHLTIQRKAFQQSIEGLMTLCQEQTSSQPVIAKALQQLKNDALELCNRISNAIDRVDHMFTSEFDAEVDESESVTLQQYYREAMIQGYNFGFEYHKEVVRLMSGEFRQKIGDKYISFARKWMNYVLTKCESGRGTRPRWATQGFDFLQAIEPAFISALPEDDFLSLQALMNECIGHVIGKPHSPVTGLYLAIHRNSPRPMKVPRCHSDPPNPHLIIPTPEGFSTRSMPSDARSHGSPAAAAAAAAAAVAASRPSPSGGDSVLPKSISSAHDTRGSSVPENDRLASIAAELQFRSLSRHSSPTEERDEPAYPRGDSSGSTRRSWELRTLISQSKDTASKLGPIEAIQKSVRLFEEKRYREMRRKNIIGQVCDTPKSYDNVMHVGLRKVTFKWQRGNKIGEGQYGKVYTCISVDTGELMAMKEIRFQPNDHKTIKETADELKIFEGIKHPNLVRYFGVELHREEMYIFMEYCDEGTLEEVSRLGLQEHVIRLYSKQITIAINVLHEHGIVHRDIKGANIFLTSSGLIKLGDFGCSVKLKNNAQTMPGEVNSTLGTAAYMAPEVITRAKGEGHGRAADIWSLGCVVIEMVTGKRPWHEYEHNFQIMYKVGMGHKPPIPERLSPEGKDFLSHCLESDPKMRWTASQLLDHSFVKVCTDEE
T22 sequence (P29376 17-864): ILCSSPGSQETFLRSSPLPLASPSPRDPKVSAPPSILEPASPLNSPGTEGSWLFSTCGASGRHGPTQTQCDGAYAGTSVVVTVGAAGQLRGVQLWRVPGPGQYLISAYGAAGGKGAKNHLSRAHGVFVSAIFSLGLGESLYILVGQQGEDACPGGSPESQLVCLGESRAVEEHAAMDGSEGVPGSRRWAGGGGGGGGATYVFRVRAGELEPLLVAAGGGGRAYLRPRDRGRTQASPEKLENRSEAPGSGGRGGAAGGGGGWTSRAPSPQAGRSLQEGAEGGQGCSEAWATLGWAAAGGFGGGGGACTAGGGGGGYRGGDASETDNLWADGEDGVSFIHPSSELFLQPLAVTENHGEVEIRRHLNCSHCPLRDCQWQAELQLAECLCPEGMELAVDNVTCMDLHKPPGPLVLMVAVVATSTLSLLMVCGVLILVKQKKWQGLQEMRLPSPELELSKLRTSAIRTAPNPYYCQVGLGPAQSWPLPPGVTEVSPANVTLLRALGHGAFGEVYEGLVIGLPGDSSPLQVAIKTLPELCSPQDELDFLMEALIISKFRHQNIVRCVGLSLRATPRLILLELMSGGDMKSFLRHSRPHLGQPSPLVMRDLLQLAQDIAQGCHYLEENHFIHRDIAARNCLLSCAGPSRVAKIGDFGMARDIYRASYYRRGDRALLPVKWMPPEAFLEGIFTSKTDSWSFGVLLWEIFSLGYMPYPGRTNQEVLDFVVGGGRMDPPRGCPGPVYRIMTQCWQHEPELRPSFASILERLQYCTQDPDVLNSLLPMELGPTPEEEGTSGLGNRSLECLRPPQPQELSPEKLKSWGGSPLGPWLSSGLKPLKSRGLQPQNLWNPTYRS
T35 sequence (Q13153 whole entry): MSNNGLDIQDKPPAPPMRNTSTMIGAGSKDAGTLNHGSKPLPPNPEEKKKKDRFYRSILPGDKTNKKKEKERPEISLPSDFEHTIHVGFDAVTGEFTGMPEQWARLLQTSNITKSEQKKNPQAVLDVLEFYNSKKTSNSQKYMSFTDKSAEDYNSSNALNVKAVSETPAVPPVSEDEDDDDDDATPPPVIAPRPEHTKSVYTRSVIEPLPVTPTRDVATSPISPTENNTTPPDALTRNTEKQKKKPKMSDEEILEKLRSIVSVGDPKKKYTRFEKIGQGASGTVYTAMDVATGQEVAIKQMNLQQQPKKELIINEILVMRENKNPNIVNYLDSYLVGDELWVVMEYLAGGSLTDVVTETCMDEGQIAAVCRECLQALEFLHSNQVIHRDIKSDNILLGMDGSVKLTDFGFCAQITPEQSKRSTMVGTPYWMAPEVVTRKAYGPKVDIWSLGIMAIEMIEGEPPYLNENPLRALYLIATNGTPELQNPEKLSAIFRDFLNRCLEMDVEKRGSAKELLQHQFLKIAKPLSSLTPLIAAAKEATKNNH
T28 sequence (Q3U3Q1 whole entry): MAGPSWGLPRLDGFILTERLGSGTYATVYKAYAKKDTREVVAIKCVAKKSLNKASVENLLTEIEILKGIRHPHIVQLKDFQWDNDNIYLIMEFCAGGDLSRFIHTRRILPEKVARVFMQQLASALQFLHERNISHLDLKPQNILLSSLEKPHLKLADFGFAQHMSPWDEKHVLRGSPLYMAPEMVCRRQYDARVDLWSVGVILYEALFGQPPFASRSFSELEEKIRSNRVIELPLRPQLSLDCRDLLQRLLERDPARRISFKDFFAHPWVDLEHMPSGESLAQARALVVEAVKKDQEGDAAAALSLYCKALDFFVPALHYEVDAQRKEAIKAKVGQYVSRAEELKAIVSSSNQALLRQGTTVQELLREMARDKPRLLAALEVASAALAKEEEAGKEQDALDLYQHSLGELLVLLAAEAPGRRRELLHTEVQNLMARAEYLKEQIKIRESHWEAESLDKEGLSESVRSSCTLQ
T4 sequence (P78368 whole entry): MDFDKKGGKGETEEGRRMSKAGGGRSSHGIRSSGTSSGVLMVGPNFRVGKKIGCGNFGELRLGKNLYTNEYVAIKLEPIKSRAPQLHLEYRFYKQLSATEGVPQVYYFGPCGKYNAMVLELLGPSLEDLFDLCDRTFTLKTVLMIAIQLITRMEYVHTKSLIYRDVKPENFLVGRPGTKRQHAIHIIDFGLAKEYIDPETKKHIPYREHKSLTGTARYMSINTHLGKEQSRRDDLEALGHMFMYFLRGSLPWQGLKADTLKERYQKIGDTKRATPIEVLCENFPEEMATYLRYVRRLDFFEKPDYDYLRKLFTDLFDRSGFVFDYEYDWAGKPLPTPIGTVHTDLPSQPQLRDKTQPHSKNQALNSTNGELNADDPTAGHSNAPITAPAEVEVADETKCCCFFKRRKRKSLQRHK

SMILES	inhibition at 10 µM [1]	inhibition at 10 µM [2]	inhibition at 10 µM [3]	inhibition at 10 µM [5]	inhibition at 10 µM [6]	inhibition at 10 µM [7]	inhibition at 10 µM [8]	inhibition at 10 µM [9]	inhibition at 10 µM [10]	inhibition at 10 µM [11]	inhibition at 10 µM [12]	inhibition at 10 µM [13]	inhibition at 10 µM [14]	inhibition at 10 µM [15]	inhibition at 10 µM [16]	inhibition at 10 µM [17]	inhibition at 10 µM [18]	inhibition at 10 µM [19]	inhibition at 10 µM [20]	inhibition at 10 µM [21]	also measured
NC(=O)c1ccc(-c2nc(-c3ccc4c(c3)OCCO4)c(-c3ccccn3)[nH]2)cc1 [D4476, 4-[4-(2,3-Dihydro-benzo[1,4]dioxin-6-yl)-5-pyridin-2-yl-1H-imidazol-2-yl]benzamide]	< 50%	< 50%	< 50%	< 50%	< 50%	< 50%	< 50%	< 50%	< 50%	< 50%	< 50%	< 50%	< 50%	< 50%	< 50%	< 50%	< 50%	< 50%	< 50%	< 50%	inhibition at 10 µM [4]: < 50%; inhibition at 10 µM [22]: < 50%; inhibition at 10 µM [23]: < 50%; inhibition at 10 µM [24]: < 50%; inhibition at 10 µM [25]: < 50%; inhibition at 10 µM [26]: < 50%; inhibition at 10 µM [27]: < 50%; inhibition at 10 µM [28]: < 50%; inhibition at 10 µM [29]: < 50%; inhibition at 10 µM [30]: < 50%; inhibition at 10 µM [31]: < 50%; inhibition at 10 µM [32]: < 50%; inhibition at 10 µM [33]: < 50%; inhibition at 10 µM [34]: < 50%; inhibition at 10 µM [35]: < 50%; inhibition at 10 µM [36]: < 50%; inhibition at 10 µM [37]: < 50%; inhibition at 10 µM [38]: < 50%; inhibition at 10 µM [39]: < 50%; inhibition at 10 µM [40]: < 50%
NC(=O)c1ccc(-c2nc(-c3ccc4c(c3)OCO4)c(-c3ccccn3)[nH]2)cc1 [SB431542, 4-(4-benzo-[1,3]dioxol-5-yl-5-pyridin-2-yl-1H-imidazol-2-yl)benzamide]	< 50%	< 50%	< 50%	< 50%	< 50%	< 50%	< 50%	< 50%	< 50%	< 50%	< 50%	< 50%	< 50%	< 50%	< 50%	< 50%	< 50%	< 50%	< 50%	< 50%	inhibition at 10 µM ([4]; 10 μM, CSNK1G2, read-out: % Inhibition): < 50%; inhibition at 10 µM [22]: < 50%; inhibition at 10 µM [23]: < 50%; inhibition at 10 µM [24]: < 50%; inhibition at 10 µM [25]: < 50%; inhibition at 10 µM [26]: < 50%; inhibition at 10 µM [27]: < 50%; inhibition at 10 µM [28]: < 50%; inhibition at 10 µM [29]: < 50%; inhibition at 10 µM [30]: < 50%; inhibition at 10 µM [31]: < 50%; inhibition at 10 µM [32]: < 50%; inhibition at 10 µM [33]: < 50%; inhibition at 10 µM [34]: < 50%; inhibition at 10 µM [35]: < 50%; inhibition at 10 µM [36]: < 50%; inhibition at 10 µM [37]: < 50%; inhibition at 10 µM [38]: < 50%; inhibition at 10 µM ([39]; 10 μM, CSNK1G1, read-out: % Inhibition): < 50%; inhibition at 10 µM [40]: < 50%

Source: US20080146617A1, “Methods of treating inflammatory diseases” (Roche Palo Alto LLC, priority 2006, published 2008)
